Measurements from patent publication US12029751B2, “Therapeutic agent for nervous system disease” (OSAKA UNIVERSITY, priority 2017, dated 2024).

Key:
[1] = tested on: tMCAO model C57BL/6J mice; assay: Brain ischemic lesion volume by TTC staining in transient middle cerebral artery occlusion (tMCAO) model; assay type: in vivo, mouse; conditions: 2 days after tMCAO surgery
Description: Eight- to 9-week-old male C57BL/6J mice (about 24 g) were used. A probe for a laser Doppler blood flow meter was placed on the right skull such that blood flow in the middle cerebral artery could be monitored. The right cervical region was cut and opened, and the external carotid artery was ligated. Then, the common carotid artery was cut, and a nylon thread was inserted into the common carotid artery, and the tip was advanced while the blood flow was checked using a blood flow monitor. When the tip reached the bifurcation of the middle cerebral artery and a decrease in blood flow was observed, this state was held for 1 hour at a rectal temperature of 37° C. Then, the nylon thread was removed, and the common carotid artery was ligated. In order to administer methylcobalamin continuously, an osmotic minipump was placed and left in the dorsal subcutaneous space. […]
At 2 days after the surgery, the mouse (Example 4-1) was sacrificed, and the cerebrum was excised. […] Images were obtained by a stereoscopic microscope, the ischemic lesion area in each slice was calculated, and all ischemic lesion areas of the cerebrum slices were summed up to calculate an ischemic lesion volume. The ischemic lesion area in each slice was calculated by the following formula: Area of unaffected hemisphere—area of affected side intact portion.

Akt-mTOR pathway = assay: Western blot of Akt, 4EBP1 and S6K phosphorylation (mechanism of macrophage induction); assay type: cell-based, mouse; conditions: 30 minutes
Description: The J774A.1 cells (Example 5-1) were seeded on a dish having a diameter of 6 cm. After 4 days, proteins were collected using a cell lysis buffer containing a cocktail of protease inhibitors. The protein concentration was measured by BCA assay. Then, 50 μg of each sample was subjected to SDS-PAGE, and the electrophoresed proteins were transferred to a polyvinylidene difluoride membrane. The membrane was blocked with a blocking buffer for 1 hour, and then the proteins were allowed to react with primary antibodies at 4° C. overnight. The proteins were further allowed to react with a secondary antibody at room temperature for 1 hour and detected using ECL Western Blotting Detection System. To detect the M1 markers iNOS and IL-1β, lipopolysaccharide (LPS) (100 ng/ml) and methylcobalamin were added at 24 hours before collecting the proteins. To detect the M2 markers Arg1 and CD206, IL-4 (20 ng/ml) and methylcobalamin were added at 72 hours before collecting the proteins.
The mechanism of the macrophage induction (Example 5) by methylcobalamin was analyzed. Specifically, the analysis was carried out as follows. At 30 minutes after IL-4 and methylcobalamin (100 nM and 1 mM) were added, activation of Akt, 4EBP1, and S6K in the Akt-mTOR pathway (one of the major signaling pathways that induce M2 gene expression) was evaluated by Western blot. In the pathway, Akt phosphorylation occurs in response to an upstream signal, and 4EBP1 phosphorylation and S6K phosphorylation further occur through mTORC1 in the downstream. The S6K phosphorylation provides a negative feedback to the upstream of the signaling pathway. Western blot was performed as in Example 5-2, except that IL-4 (20 ng/ml), methylcobalamin, and RAD001 (200 nM) were added at 30 minutes before the proteins were collected, and the primary antibodies for detection were changed.

[2] = tested on: rat spinal cord injury model; assay: Thermal algesimetry test in rat spinal cord injury model; assay type: in vivo; conditions: for Thermal algesimetry test, Time after spying infrared thermal stimulation: right sole
Description: Six-week-old female Wistar rats were used. The rats were purchased from Charles River Laboratories Japan, Inc. (Yokohama, Japan). Anesthesia was performed as follows. A 1:10 dilution of a mixture of three anesthetic agents in physiological saline was administered by intraperitoneal injection. One dose consisted of 0.2 mg/kg of midazolam, 0.015 mg/kg of medetomidine, and 0.25 mg/kg of butorphanol. The rat was placed in a prone position on an operating table, and a dorsal midline incision was made. The T10 vertebral arch was removed to expose the posterior face of the spinal cord, and the left spinal cord was hemisected using a sharp-pointed surgical scalpel (spitz mess). The skin was sutured using a 4-0 nylon thread and the surgery was completed. A comparison was made among three groups: a methylcobalamin treatment group, an untreated group, and a sham group. Immediately after the surgical operation, an osmotic minipump filled with methylcobalamin (1 mg/kg/day) or physiological saline was placed for the methylcobalamin treatment group and the untreated group, respectively, and left in the left dorsal subcutaneous space. The sham group underwent only resection of the Th10 vertebral arch.
Each rat was separately accommodated in a dedicated cage, an infrared thermal stimulation was applied to the right sole, and time until the rat retracted the hind limb was measured. To avoid damage to the skin, the stimulation was continued for 15 seconds at the maximum. The evaluations were performed before surgery, and at 7, 14, 21, and 28 days after the surgery.

[3] = IL-4 20 ng/ml + MeCbl 100 nM, listed as methylcobalamin
[4] = IL-4 20 ng/ml + MeCbl 1 mM + RAD001 (200 nM)
[5] = IL-4 20 ng/ml + MeCbl 1 mM, listed as methylcobalamin

**Q.** Which ischemic lesion volume ([1]; 1 mg/kg/day continuous, osmotic minipump) does the source give for `C/C1=C2/[N-][C@H]([C@H](CC(N)=O)[C@@]2(C)CCC(=O)NC[C@@H](C)OP(=O)([O-])O[C@H]2[C@@H](O)[C@@H](n3cnc4cc(C)c(C)cc43)O[C@@H]2CO)[C@]2(C)N=C(/C(C)=C3N=C(/C=C4N=C1[C@@H](CCC(N)=O)C\4(C)C)[C@@H](CCC(N)=O)[C@]\3(C)CC(N)=O)[C@@H](CCC(N)=O)[C@]2(C)CC(N)=O.[CH3-].[Co+3]` [MeCbl, methylcobalamin] here?
**A.** The ischemic lesion volume was 28.8.

**Q.** What about the “reduction of ischemic lesion volume as compared with the control group” value ([1]; 1 mg/kg/day) of the same compound?
**A.** The value was “about ½”.

**Q.** And the p-4EBP1/4EBP1 (Akt-mTOR pathway; IL-4 20 ng/ml + MeCbl 100 nM)?
**A.** Its p-4EBP1/4EBP1 is 4.94.

**Q.** What about the p-Akt/Akt (Akt-mTOR pathway; IL-4 20 ng/ml + MeCbl 100 nM) of the same compound?
**A.** The p-Akt/Akt was 3.58.

**Q.** What about the p-S6K/S6K (Akt-mTOR pathway; IL-4 20 ng/ml + MeCbl 100 nM) of the same compound?
**A.** The p-S6K/S6K was 2.65.

**Q.** And the p-4EBP1/4EBP1 (Akt-mTOR pathway; [3])?
**A.** The p-4EBP1/4EBP1 was “enhanced”.

**Q.** And the p-S6K/S6K (Akt-mTOR pathway; [3])?
**A.** The p-S6K/S6K was “enhanced”.

**Q.** What about the p-4EBP1/4EBP1 (Akt-mTOR pathway; [4]) of the same compound?
**A.** The p-4EBP1/4EBP1 was 2.78.

**Q.** And the p-Akt/Akt (Akt-mTOR pathway; [4])?
**A.** Its p-Akt/Akt is 3.78.

**Q.** And the p-S6K/S6K (Akt-mTOR pathway; [4])?
**A.** The p-S6K/S6K was 0.33.

**Q.** What about the p-4EBP1/4EBP1 (Akt-mTOR pathway; IL-4 20 ng/ml + MeCbl 1 mM) of the same compound?
**A.** Its p-4EBP1/4EBP1 is 6.08.

**Q.** And the p-Akt/Akt (Akt-mTOR pathway; IL-4 20 ng/ml + MeCbl 1 mM)?
**A.** The p-Akt/Akt was 2.59.

**Q.** And the p-S6K/S6K (Akt-mTOR pathway; IL-4 20 ng/ml + MeCbl 1 mM)?
**A.** Its p-S6K/S6K is 3.12.

**Q.** And the p-4EBP1/4EBP1 (Akt-mTOR pathway; [5])?
**A.** The p-4EBP1/4EBP1 was “activated”.

**Q.** What about the p-Akt/Akt (Akt-mTOR pathway; [5]) of the same compound?
**A.** Its p-Akt/Akt is “decreased”.

**Q.** And the p-S6K/S6K (Akt-mTOR pathway; [5])?
**A.** Its p-S6K/S6K is “activated”.

**Q.** What about the Thermal algesimetry test, Time after spying infrared thermal stimulation ([2]; 0 days after surgery (before surgery)) of the same compound?
**A.** The Thermal algesimetry test, Time after spying infrared thermal stimulation was 9.99 s.

**Q.** And the “right-lower-extremity hyperesthesia (thermal algesimetry test)” value ([2]; 21 and 28 days after the surgery, 1 mg/kg/day osmotic minipump)?
**A.** The value was “significantly improved”.

**Q.** And the Thermal algesimetry test, Time after spying infrared thermal stimulation ([2]; 7 days after surgery)?
**A.** The Thermal algesimetry test, Time after spying infrared thermal stimulation was 8.59 s.

**Q.** And the Thermal algesimetry test, Time after spying infrared thermal stimulation ([2]; 14 days after surgery)?
**A.** Its Thermal algesimetry test, Time after spying infrared thermal stimulation is 8.86 s.

**Q.** What about the Thermal algesimetry test, Time after spying infrared thermal stimulation ([2]; 21 days after surgery) of the same compound?
**A.** Its Thermal algesimetry test, Time after spying infrared thermal stimulation is 9.61 s.

**Q.** And the Thermal algesimetry test, Time after spying infrared thermal stimulation ([2]; 28 days after surgery)?
**A.** Its Thermal algesimetry test, Time after spying infrared thermal stimulation is 9.92 s.
